# Reference: paper PMC5418711, “Safety and efficacy of the choline analogue SAR97276 for malaria treatment: results of two phase 2, open-label, multicenter trials in African patients” (Malaria Journal, 2017)
# Values joined by “and” are separate entries in the source; they are usually repeats but may differ in a detail not shown here. Equal entries are not always repeated. Where two headings read alike, the source gives them in different places.
# What was measured:
# malaria monkey model = test system: malaria monkey model; set-up: method as in PMID 11847346, PMID 15492221, PMID 12878525; conditions: cited from earlier work
# [1] = Population pharmacokinetics in plasma, Study 1 and Study 2; type: in vivo, human; conditions: for AUC(0-t) / Cmax / Vd / clearance: human, plasma; for AUC(0-t) / Cmax: mean and SD; for AUC(0-t): read-out: AUC or AUC0-24,ss; for Cmax: read-out: Cmax or Cmax,ss; for Vd: read-out: Median central volume of distribution V2; for clearance: read-out: Median clearance (converted)
# Procedure: Rescue therapy was initiated in case of clinical aggravation of recrudescent parasites in both studies, the exact description for each study can be seen in the supplement (Additional file 3). Pharmacokinetic analysis: Plasma samples were assayed using a validated liquid chromatography-mass spectrometry method with a limit of quantification of 1 ng/ml for SAR97276. The pharmacokinetic analysis was performed using a population pharmacokinetic modeling approach.
# The pharmacokinetics of SAR97276 were best described by a three-compartment model, with a first order absorption (ka), with interindividual variability on clearances and central volume of distribution.
# [2] = Study 2: safety assessment (TEAEs, ECG, respiratory parameters); type: in vivo, human; conditions: for QTc interval - change from baseline Borderline: Incr. from B 30-60 ms / QTc interval - change from baseline Prolonged: Incr. from B > 60 ms / QTc interval Borderline: 431-450 ms (Boys); 451-470 ms (Girls) / QTc interval Prolonged: > 450 ms (Boys); > 470 ms (Girls) / QTc interval ≥ 500 ms: TEAE period
# Procedure: Study duration and follow-up In both studies, study duration was 28 days for each patient including a screening period of up to 12 h before inclusion into the study. Participants were hospitalized for at least 3 days (72 h) after the start of treatment. Follow-up visits were done on day 6, 8, 14 ± 2, 21 ± 2, 28 ± 2 (Study 1); and day 7, 14 ± 2, 21 ± 2, 28 ± 2 (Study 2). Patient examination Fever measurements and thick blood smears were done every 6 h until 72 h and at each follow-up visit. Parasitemia was determined microscopically by Giemsa stained thick blood smear by two trained microscopists blinded to each other. Safety assessment Safety analysis was based on AEs including vision assessment recorded from baseline until day 28 (in binocular conditions, for near and distant visual acuity, using standard optotypes appropriate for patient’s age and reading ability. Tests with standard corrective glasses (+3 and −3 diopters) were performed in case of visual adverse events, to assess whether vision improved or worsened with corrective glasses). Laboratory tests including hematology, biochemistry and urine analysis were done at baseline, day 2, 4, 28 (Study 1), or baseline, day 2, 4, 14, 28 (Study 2); vital signs were recorded at baseline, every 6 h until 72 h and on each follow up visit. An electrocardiogram (ECG) was done at baseline, day 4, 28 (Study 1), or baseline, 48 h, 72 h, day 28 (Study 2). For Study 2 respiratory parameters (respiratory rate, peak flow, efficiency of cough) were also checked at baseline and 30 min after first dose on day 1, 2 and 3.
# Treatment emergent adverse events (TEAEs) were defined as AEs that developed or worsened during the treatment period until day 6 following the end of study treatment.
# [3] = im, 0.18 mg/kg, Group 1D: 3 days IM 0.18 mg/kg, children, n=14
# [4] = im, 0.18 mg/kg, Study 1 Adults IM (1A + 1B) 0.18 mg/kg, n=64
# [5] = im, 0.5 mg/kg, Group 2A: 3 days IM once daily 0.5 mg/kg, teenagers, n=8
# [6] = intramuscular, 0.18 mg/kg, children
# [7] = iv, 0.14 mg/kg, Group 1C: 1 day IV 0.14 mg/kg, adults, n=30
# [8] = Group 2A: 3 days IM once daily 0.5 mg/kg, teenagers, N=8
# [9] = Group 2A: 3 days IM once daily 0.5 mg/kg, teenagers, N=8, baseline 205
# [10] = Group 2A: 3 days IM once daily 0.5 mg/kg, teenagers
# [11] = Group 2B: 3 days IM twice daily 0.25 mg/kg, teenagers, N=8
# [12] = Group 2B: 3 days IM twice daily 0.25 mg/kg, teenagers, N=8, baseline 185
# [13] = Group 2B: 3 days IM twice daily 0.25 mg/kg, teenagers
compound,measurement,setting,value
Cc1c(CCO)sc[n+]1CCCCCCCCCCCC[n+]1csc(CCO)c1C [SAR97276A],Efficacy in malaria monkey model,malaria monkey model,highly efficacious
same,AUC(0-t),[1]; [3],479 ± 111 ng·h/mL
same,Cmax,[1]; [3],332 ± 91 ng/mL
same,AUC(0-t),[1]; [4],674 ± 109 ng·h/mL
same,Cmax,[1]; [4],355 ± 51 ng/mL
same,AUC(0-t),"[1]; im, 0.25 mg/kg, Group 2B: 3 days IM twice daily 0.25 mg/kg, teenagers, n=8, AUC0-12 at steady state multiplied by 2",1400 ± 270 ng·h/mL
same,Cmax,"[1]; im, 0.25 mg/kg, Group 2B: 3 days IM twice daily 0.25 mg/kg, teenagers, n=8",477 ± 91 ng/mL
same,AUC(0-t),[1]; [5],1470 ± 375 ng·h/mL
same,Cmax,[1]; [5],862 ± 45 ng/mL
same,Vd,[1]; [6],0.217 L/kg
same,clearance,[1]; [6],6.55 mL/min/kg
same,AUC(0-t),[1]; [7],480 ± 92 ng·h/mL
same,Cmax,[1]; [7],390 ± 55 ng/mL
same,Vd,[1]; adults,0.27 L/kg
same,clearance,[1]; adults,4.58 mL/min/kg
same,Inter-individual variability based on Cmax and AUC,[1]; whatever the populations or the route of administration,< 25%
same,Patients with TEAE leading to treatment discontinuation,[2]; [8],2 (25%)
same,Patients with any TEAE,[2]; [8],8 (100%)
same,Patients with any serious AE,[2]; [8],4 (50%)
same,TEAE: Decreased appetite,[2]; [8],0
same,TEAE: Gastrointestinal disorders,[2]; [8],4 (50%)
same,TEAE: Headache,[2]; [8],0
same,TEAE: Hepatitis B,[2]; [8],1 (13%)
same,TEAE: Jaundice,[2]; [8],1 (13%)
same,TEAE: Lacrimation increased,[2]; [8],1 (13%)
same,TEAE: Malaria,[2]; [8],7 (88%)
same,TEAE: Neutropenia,[2]; [8],0
same,TEAE: Pyrexia,[2]; [8],0
same,TEAE: Vertigo,[2]; [8],1 (12.5%)
same,TEAE: Vision blurred,[2]; [8],1 (13%)
same,"Peakflow, change from baseline on D1 0.30 h",[2]; [9],-15.0 median L/min
same,"Peakflow, change from baseline on D2 24.30 h",[2]; [9],4.0 median L/min
same,"Peakflow, change from baseline on D23 48.30 h",[2]; [9],45.0 median L/min
same,QTc interval - change from baseline Borderline: Incr. from B 30-60 ms,[2]; [10],2/8
same,QTc interval - change from baseline Prolonged: Incr. from B > 60 ms,[2]; [10],0/8
same,QTc interval Borderline: 431-450 ms (Boys); 451-470 ms (Girls),[2]; [10],3/8
same,QTc interval Prolonged: > 450 ms (Boys); > 470 ms (Girls),[2]; [10],0/8
same,QTc interval ≥ 500 ms,[2]; [10],0/8
same,Patients with TEAE leading to treatment discontinuation,[2]; [11],2 (25%)
same,Patients with any TEAE,[2]; [11],5 (63%)
same,Patients with any serious AE,[2]; [11],2 (25%)
same,TEAE: Decreased appetite,[2]; [11],1 (13%)
same,TEAE: Gastrointestinal disorders,[2]; [11],1 (13%)
same,TEAE: Headache,[2]; [11],0
same,TEAE: Jaundice,[2]; [11],0
same,TEAE: Lacrimation increased,[2]; [11],0
same,TEAE: Malaria,[2]; [11],4 (50%)
same,TEAE: Neutropenia,[2]; [11],2 (25%)
same,TEAE: Pyrexia,[2]; [11],0
same,TEAE: Vertigo,[2]; [11],0
same,TEAE: Vision blurred,[2]; [11],0
same,"Peakflow, change from baseline on D1 0.30 h",[2]; [12],2.5 median L/min
same,"Peakflow, change from baseline on D2 24.30 h",[2]; [12],5.0 median L/min
same,"Peakflow, change from baseline on D23 48.30 h",[2]; [12],-10.0 median L/min
same,QTc interval - change from baseline Borderline: Incr. from B 30-60 ms,[2]; [13],0/8
same,QTc interval - change from baseline Prolonged: Incr. from B > 60 ms,[2]; [13],0/8
same,QTc interval Borderline: 431-450 ms (Boys); 451-470 ms (Girls),[2]; [13],2/8
same,QTc interval Prolonged: > 450 ms (Boys); > 470 ms (Girls),[2]; [13],2/8
same,QTc interval ≥ 500 ms,[2]; [13],0/8
same,Overall safety profile,[2]; Study 2,good
same,"Patients with a TEAE who discontinued study treatment and received rescue treatment, total",[2]; Study 2,Four
same,Respiratory parameters: untoward effect,[2]; Study 2,no indication for an untoward effect
same,SAEs: relation to study treatment,[2]; Study 2,not related
same,"Patients who had a SAE, total","[2]; Study 2, all in the SAR97276A treatment groups",6
same,Neutrophil count in the two patients with neutropenia who discontinued treatment,"[2]; Study 2, day 2, returned to normal values at 72 h after treatment start",0.99 giga/L and 0.91 giga/L
same,Patients with a SAE with persistence of uncomplicated malaria,"[2]; Study 2, of six SAE patients",five
